Measurements published in publication PMC11876601 (Molecular Systems Biology, 2025).
One block for each compound: values may come before it.

Experiments:
GSK3B ; P49841-2;P49841 = GSK3B ; P49841-2;P49841 (Homo sapiens, UniProt P49841); assay: biochemical; set-up: species or system AsPC-1; Kinobeads competition pulldown in AsPC-1 lysate with LC-MS/MS label-free quantification; apparent Kd
PIK3C3 ; Q8NEB9 = PIK3C3 ; Q8NEB9 (Homo sapiens, UniProt Q8NEB9); assay: biochemical; set-up: species or system AsPC-1; Kinobeads competition pulldown in AsPC-1 lysate with LC-MS/MS label-free quantification; apparent Kd
PIK3C3 ; Q8NEB9, sequence (Q8NEB9 whole entry): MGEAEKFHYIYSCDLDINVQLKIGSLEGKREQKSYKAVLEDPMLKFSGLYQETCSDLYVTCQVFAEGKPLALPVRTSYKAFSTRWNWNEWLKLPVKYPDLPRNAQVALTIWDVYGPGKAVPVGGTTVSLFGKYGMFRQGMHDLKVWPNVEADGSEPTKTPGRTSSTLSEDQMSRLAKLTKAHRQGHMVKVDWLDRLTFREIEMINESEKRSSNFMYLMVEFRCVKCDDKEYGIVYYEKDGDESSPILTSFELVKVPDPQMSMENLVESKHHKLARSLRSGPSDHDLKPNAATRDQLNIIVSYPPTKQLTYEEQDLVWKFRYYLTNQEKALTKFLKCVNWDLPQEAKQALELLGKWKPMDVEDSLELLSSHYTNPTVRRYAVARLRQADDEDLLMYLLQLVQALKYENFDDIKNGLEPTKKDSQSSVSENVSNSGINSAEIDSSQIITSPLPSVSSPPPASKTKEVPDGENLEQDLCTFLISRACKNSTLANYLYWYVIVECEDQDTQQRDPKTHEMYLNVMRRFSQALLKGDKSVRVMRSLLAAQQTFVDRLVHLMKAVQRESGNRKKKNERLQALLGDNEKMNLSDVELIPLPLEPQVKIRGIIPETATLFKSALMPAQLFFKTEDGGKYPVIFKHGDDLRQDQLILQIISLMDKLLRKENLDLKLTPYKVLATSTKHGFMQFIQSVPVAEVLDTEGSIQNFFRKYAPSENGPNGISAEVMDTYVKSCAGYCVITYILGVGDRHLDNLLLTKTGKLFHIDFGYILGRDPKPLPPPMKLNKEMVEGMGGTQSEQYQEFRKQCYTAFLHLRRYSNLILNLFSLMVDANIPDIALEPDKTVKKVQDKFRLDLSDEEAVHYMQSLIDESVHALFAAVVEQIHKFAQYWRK

STK3 ; Q13188;Q13188-2 = STK3 ; Q13188;Q13188-2 (Homo sapiens, UniProt Q13188); assay: biochemical; set-up: species or system AsPC-1; Kinobeads competition pulldown in AsPC-1 lysate with LC-MS/MS label-free quantification; apparent Kd
STK3 ; Q13188;Q13188-2, sequence (Q13188 whole entry): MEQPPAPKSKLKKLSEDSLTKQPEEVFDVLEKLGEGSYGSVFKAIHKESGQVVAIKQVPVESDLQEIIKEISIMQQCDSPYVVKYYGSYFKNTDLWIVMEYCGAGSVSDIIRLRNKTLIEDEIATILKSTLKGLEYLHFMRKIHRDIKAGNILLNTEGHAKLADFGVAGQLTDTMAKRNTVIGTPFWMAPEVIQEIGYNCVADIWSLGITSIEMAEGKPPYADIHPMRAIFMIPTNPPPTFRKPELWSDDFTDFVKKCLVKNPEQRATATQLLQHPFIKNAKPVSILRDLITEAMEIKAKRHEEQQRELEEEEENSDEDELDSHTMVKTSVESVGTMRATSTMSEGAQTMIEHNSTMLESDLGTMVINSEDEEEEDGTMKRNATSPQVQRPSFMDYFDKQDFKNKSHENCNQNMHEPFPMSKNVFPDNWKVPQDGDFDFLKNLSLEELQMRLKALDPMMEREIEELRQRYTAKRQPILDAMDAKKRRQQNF

[1] = molecular target: PIP4K2C ; Q8TBX8;Q8TBX8-2;Q8TBX8-3 (Homo sapiens, UniProt Q8TBX8); assay: biochemical; set-up: species or system AsPC-1; Kinobeads competition pulldown in AsPC-1 lysate with LC-MS/MS label-free quantification; apparent Kd
CDC42BPG ; Q6DT37 = CDC42BPG ; Q6DT37 (Homo sapiens, UniProt Q6DT37); assay: biochemical; set-up: species or system AsPC-1; Kinobeads competition pulldown in AsPC-1 lysate with LC-MS/MS label-free quantification; apparent Kd
[2] = molecular target: CIT ; O14578-4;O14578;O14578-2 (Homo sapiens, UniProt O14578); assay: biochemical; set-up: species or system AsPC-1; Kinobeads competition pulldown in AsPC-1 lysate with LC-MS/MS label-free quantification; apparent Kd
[3] = molecular target: ADCK1 ; Q86TW2;Q86TW2-2;Q86TW2-3 (Homo sapiens, UniProt Q86TW2); assay: biochemical; set-up: species or system AsPC-1; Kinobeads competition pulldown in AsPC-1 lysate with LC-MS/MS label-free quantification; apparent Kd
ADCK1 ; Q86TW2;Q86TW2-2;Q86TW2-3, sequence (Q86TW2 whole entry): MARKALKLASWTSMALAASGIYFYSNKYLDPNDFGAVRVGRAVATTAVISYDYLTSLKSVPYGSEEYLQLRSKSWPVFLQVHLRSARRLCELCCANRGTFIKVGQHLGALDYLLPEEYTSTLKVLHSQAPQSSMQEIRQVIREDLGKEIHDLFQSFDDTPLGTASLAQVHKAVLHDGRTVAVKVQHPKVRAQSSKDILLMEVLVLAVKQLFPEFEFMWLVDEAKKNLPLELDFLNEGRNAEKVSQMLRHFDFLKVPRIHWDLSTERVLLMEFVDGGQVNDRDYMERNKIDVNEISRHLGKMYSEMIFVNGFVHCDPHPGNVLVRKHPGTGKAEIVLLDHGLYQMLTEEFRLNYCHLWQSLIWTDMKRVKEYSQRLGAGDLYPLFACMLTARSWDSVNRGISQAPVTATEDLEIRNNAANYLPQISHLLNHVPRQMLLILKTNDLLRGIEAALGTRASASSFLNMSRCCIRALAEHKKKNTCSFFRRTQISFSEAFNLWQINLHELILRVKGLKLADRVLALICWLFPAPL

[4] = molecular target: CDK10 ; Q15131;Q15131-5;Q15131-2;Q15131-6;Q15131-4;Q15131-3;Q15131-7 (Homo sapiens, UniProt Q15131); assay: biochemical; set-up: species or system AsPC-1; Kinobeads competition pulldown in AsPC-1 lysate with LC-MS/MS label-free quantification; apparent Kd
CDK10 ; Q15131;Q15131-5;Q15131-2;Q15131-6;Q15131-4;Q15131-3;Q15131-7, sequence (Q15131 whole entry): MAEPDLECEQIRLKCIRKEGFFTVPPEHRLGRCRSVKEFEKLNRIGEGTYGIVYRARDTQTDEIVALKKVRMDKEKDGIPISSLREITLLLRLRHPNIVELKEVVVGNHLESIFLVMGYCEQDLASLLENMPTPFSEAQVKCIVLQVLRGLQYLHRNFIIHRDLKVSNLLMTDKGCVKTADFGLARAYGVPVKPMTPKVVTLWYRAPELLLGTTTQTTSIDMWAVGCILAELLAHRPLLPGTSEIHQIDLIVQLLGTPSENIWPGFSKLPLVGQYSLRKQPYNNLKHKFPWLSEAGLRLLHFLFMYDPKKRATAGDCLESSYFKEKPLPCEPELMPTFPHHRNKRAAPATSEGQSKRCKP

TP53RK ; Q96S44 = TP53RK ; Q96S44 (Homo sapiens, UniProt Q96S44); assay: biochemical; set-up: species or system AsPC-1; Kinobeads competition pulldown in AsPC-1 lysate with LC-MS/MS label-free quantification; apparent Kd
TP53RK ; Q96S44, sequence (Q96S44 whole entry): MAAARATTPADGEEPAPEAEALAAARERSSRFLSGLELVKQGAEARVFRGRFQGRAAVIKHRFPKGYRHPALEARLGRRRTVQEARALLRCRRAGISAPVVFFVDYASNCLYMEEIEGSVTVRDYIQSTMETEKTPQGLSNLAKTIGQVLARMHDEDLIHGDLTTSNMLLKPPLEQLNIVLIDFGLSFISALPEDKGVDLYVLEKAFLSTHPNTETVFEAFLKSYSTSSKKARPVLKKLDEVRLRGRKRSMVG

FN3KRP ; Q9HA64 = FN3KRP ; Q9HA64 (Homo sapiens, UniProt Q9HA64); assay: biochemical; set-up: species or system AsPC-1; Kinobeads competition pulldown in AsPC-1 lysate with LC-MS/MS label-free quantification; apparent Kd
FN3KRP ; Q9HA64, sequence (Q9HA64 whole entry): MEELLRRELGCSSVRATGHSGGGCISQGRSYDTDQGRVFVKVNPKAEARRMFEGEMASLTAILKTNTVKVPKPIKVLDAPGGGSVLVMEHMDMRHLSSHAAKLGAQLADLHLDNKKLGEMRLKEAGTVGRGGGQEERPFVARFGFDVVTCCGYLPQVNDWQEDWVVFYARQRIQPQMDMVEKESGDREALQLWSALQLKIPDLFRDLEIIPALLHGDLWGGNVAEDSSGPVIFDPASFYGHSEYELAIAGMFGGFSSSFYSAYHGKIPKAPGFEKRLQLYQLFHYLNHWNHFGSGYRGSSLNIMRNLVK

[5] = molecular target: CDC42BPA ; Q5VT25-5;Q5VT25-4;Q5VT25;Q5VT25-2;Q5VT25-6;Q5VT25-3 (Homo sapiens, UniProt Q5VT25); assay: biochemical; set-up: species or system AsPC-1; Kinobeads competition pulldown in AsPC-1 lysate with LC-MS/MS label-free quantification; apparent Kd
CDC42BPA ; Q5VT25-5;Q5VT25-4;Q5VT25;Q5VT25-2;Q5VT25-6;Q5VT25-3, sequence (Q5VT25 whole entry): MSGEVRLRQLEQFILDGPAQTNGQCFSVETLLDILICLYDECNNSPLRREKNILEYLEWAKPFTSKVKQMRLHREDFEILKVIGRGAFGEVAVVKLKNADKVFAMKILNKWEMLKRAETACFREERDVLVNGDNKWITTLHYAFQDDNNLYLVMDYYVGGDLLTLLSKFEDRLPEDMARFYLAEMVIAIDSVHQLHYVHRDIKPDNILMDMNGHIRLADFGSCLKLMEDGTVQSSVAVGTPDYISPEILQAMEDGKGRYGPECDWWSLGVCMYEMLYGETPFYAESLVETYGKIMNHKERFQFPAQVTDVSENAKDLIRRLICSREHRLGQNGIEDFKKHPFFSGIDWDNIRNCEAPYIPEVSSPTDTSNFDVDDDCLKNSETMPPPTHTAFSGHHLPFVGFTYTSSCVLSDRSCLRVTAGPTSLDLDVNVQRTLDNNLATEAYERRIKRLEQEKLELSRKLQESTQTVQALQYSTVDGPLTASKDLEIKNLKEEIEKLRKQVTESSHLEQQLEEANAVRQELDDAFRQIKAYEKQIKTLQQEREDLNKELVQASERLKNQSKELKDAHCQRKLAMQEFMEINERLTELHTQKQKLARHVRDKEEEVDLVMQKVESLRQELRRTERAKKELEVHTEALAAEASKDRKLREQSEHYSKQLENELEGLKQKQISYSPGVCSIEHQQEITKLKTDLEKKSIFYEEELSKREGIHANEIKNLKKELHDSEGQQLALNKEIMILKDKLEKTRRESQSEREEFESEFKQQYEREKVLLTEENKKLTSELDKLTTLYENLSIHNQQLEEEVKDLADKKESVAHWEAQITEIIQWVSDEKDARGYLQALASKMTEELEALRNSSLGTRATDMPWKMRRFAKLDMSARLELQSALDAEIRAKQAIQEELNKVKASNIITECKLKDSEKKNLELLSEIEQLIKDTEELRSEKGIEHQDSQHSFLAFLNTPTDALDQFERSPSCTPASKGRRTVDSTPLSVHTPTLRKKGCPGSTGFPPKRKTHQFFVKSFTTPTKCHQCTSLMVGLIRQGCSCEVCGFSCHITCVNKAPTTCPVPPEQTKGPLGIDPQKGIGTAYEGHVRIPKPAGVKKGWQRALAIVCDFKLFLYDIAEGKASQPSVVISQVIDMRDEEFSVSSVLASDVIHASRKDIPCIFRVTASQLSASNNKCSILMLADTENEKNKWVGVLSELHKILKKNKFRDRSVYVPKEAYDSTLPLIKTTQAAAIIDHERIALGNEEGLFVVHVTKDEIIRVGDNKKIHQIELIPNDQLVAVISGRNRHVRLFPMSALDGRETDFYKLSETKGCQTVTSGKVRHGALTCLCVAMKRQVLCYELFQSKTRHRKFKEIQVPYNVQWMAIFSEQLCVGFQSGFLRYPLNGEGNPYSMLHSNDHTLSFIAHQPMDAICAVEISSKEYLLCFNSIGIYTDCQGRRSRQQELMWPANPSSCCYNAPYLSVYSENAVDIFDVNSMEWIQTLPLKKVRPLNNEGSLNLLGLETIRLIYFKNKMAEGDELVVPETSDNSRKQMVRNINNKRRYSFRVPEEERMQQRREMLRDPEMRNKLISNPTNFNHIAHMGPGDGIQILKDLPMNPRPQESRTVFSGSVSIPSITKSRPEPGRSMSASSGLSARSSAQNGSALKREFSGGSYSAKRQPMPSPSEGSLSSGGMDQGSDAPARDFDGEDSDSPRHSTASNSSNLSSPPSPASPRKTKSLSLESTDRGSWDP

CSNK2A2 ; P19784 = CSNK2A2 ; P19784 (Homo sapiens, UniProt P19784); assay: biochemical; set-up: species or system AsPC-1; Kinobeads competition pulldown in AsPC-1 lysate with LC-MS/MS label-free quantification; apparent Kd
CSNK2A2 ; P19784, sequence (P19784 whole entry): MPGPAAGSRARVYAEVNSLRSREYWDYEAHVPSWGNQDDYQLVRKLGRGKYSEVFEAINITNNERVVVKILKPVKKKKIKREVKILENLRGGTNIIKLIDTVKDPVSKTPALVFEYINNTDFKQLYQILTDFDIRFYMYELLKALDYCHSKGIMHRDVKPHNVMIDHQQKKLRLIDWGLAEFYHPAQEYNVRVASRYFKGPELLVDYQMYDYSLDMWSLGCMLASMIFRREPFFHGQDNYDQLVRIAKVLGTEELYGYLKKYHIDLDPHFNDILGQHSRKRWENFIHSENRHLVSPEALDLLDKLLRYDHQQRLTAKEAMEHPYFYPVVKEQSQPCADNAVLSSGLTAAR

[6] = molecular target: CLK1 ; P49759-3;P49759;P49759-2 (Homo sapiens, UniProt P49759); assay: biochemical; set-up: species or system AsPC-1; Kinobeads competition pulldown in AsPC-1 lysate with LC-MS/MS label-free quantification; apparent Kd
PRKAB1 = tested on: PRKAB1; set-up: method as in Klaeger et al. (2017); conditions: lysate 4 cell line mix (Colo205, K-562, MV-4-11, and SK-N-BE(2)), Kinobeads y, ref Klaeger et al. (2017); cited from earlier work
CSNK2B = conditions: 5 cell line mix lysate, Kinobeads ε, ref Reinecke et al. (2023), cited from earlier work
TAOK3 = tested on: TAOK3; set-up: method as in Reinecke et al. (2023); conditions: TAOK3, 5 cell line mix lysate, Kinobeads ε, ref Reinecke et al. (2023), cited from earlier work
MAPK7 = tested on: MAPK7; set-up: method as in Reinecke et al. (2023); conditions: MAPK7, 5 cell line mix lysate, Kinobeads ε, ref Reinecke et al. (2023), cited from earlier work

SMILES: CNCc1ccc(-c2cc(-c3nc(-c4ccc(S(=O)(=O)C(C)C)cc4)cnc3N)on2)cc1 [Berzosertib]
Kd (GSK3B ; P49841-2;P49841): 0.0332 µM | Kd (PIK3C3 ; Q8NEB9): 0.0092 µM | Kd (STK3 ; Q13188;Q13188-2): 0.0702 µM | Kd [1]: 0.0214 µM

Kd (CDC42BPG ; Q6DT37): 0.0169 µM | Kd [2]: 0.04 µM | Kd [3]: 0.0232 µM | Kd [4]: 0.153 µM | Kd (TP53RK ; Q96S44): 0.113 µM | Kd (FN3KRP ; Q9HA64): 0.358 µM | Kd [5]: 0.0154 µM | Kd (CSNK2A2 ; P19784): 0.0151 µM | Kd [6]: 0.0709 µM
SMILES: Nc1nn2cc(F)cnc2c1C(=O)Nc1cncc(F)c1N1CCC(C(=O)N2CCN(C3COC3)CC2)CC1 [Gartisertib]

SMILES: C[C@]12O[C@H](C[C@]1(O)CO)n1c3ccccc3c3c4c(c5c6ccccc6n2c5c31)CNC4=O [Lestaurtinib]
EC50 (PRKAB1): 1.79 µM

SMILES: COc1cc(N2CCC(N3CCN(C)CC3)CC2)ccc1Nc1ncc(Cl)c(Nc2ccccc2P(C)(C)=O)n1 [Brigatinib]
Kd (CSNK2B; read-out: KDapp): 0.508 µM | EC50 (CSNK2B): 0.508 µM | pKDapp (CSNK2B): 6.29 | EC50 (TAOK3): 0.69 µM | pKDapp (TAOK3): 6.27 | Kd (TAOK3; read-out: KDapp): 0.534 µM | EC50 (MAPK7): 1.06 µM | pKDapp (MAPK7): 6.08 | Kd (MAPK7; read-out: KDapp): 0.828 µM
